Results from patent publication US5571892A, “Polypeptide and anti-HIV drug prepared therefrom” (priority 1990, dated 1996).
Values after ≈ are worked out from the molar mass of the structure shown. Where a SMILES comes first, the peptide text is derived from it.

Key:
MT-4 cells = assay: Cytotoxicity on virus-non-infected MT-4 cells (MTT method); assay type: cell-based; details: for CC 50 (50% cytotoxic concentration): Table 2, virus-non-infected MT-4 cells, 5 days, MTT method
[1] = test system: human immunodeficiency virus (HIV); details: for EC 50 (concentration at which cellular affection due to HIV infection is 50% inhibited): HIV-infected MT-4 cells, MOI 0.001, 5 days, MTT method; for Anti-HIV activity SI / Anti-HIV activity EC50: Table 3; for Anti-HIV activity SI: CC50/EC50; for Anti-HIV activity EC50: tested likewise in Example 2, HIV-infected MT-4 cells
Method: HIV-infected MT-4 cells (2.5×10^4 cells/well, multiplicity of infection (MOI): 0.001) immediately after the infection are added together with a test substance with various changes of the concentration to a 96-well microtiter plate. After incubation at […] for 5 days in a CO2 incubator, the number of survivor cells is measured by the MTT method [Pauwels et al.; J. Virol. Methods, 20, 309-321 (1988)]. […] On the other hand, in order to know the cytotoxicity of the test substance on the MT-4 cells, virus-non-infected cells are incubated, likewise as above, together with the test compound with various changes of the concentration. […] Further, the rough ratio of CC 50 to EC 50 (CC 50/EC 50) is expressed as an effective ratio (SI).

Molecule	Cytotoxicity compared with Tachyplesin I (MT-4 cells; MT-4 cells, Table 2 data)	CC 50 (50% cytotoxic concentration) (MT-4 cells) [µg/mL]	CC 50 relative to azidothymidine (times higher) (MT-4 cells; compared with azidothymidine, Table 2 data) [times]	EC 50 (concentration at which cellular affection due to HIV infection is 50% inhibited) ([1]; Table 2) [µg/mL]	SI (effective ratio, CC 50/EC 50) ([1]; Table 2, rough ratio of CC 50 to EC 50)	Anti-HIV activity SI [1]	Anti-HIV activity EC50 [1] [µg/mL]	Concentration for antiviral activity relative to Tachyplesin I ([1]; compared with Tachyplesin I, Table 2 data)
CC[C@H](C)[C@@H]1NC(=O)CNC(=O)[C@H](CCCNC(=N)N)NC(=O)[C@H](Cc2ccc(O)cc2)NC(=O)[C@@H]2CSSC[C@H](NC1=O)C(=O)N[C@@H](Cc1ccc(O)cc1)C(=O)N[C@@H](CCCNC(=N)N)C(=O)N[C@@H](CCCCN)C(=O)N[C@H](C(=O)N[C@@H](CCCNC(=N)N)C(N)=O)CSSC[C@H](NC(=O)[C@H](Cc1c[nH]c3ccccc13)NC(=O)[C@@H](N)CCCNC(=N)N)C(=O)N[C@@H](Cc1ccc(O)cc1)C(=O)N[C@@H](CCCNC(=N)N)C(=O)N[C@@H](CCCCN)C(=O)N2 [Polypeptide (A)] (HELM PEPTIDE1{R.W.C.Y.R.K.C.Y.R.G.I.C.Y.R.K.C.R.[am]}$PEPTIDE1,PEPTIDE1,3:R3-16:R3|PEPTIDE1,PEPTIDE1,7:R3-12:R3$$$V2.0; N-terminus assumed)	somewhat stronger cytotoxicity	39 (≈ 16.9 µM)	60	0.35 (≈ 0.152 µM)	110	1144	0.039	1/50
[H][C@]12CSSC[C@]([H])(NC(=O)[C@]([H])([C@@H](C)CC)NC(=O)CNC(=O)[C@H](CCCNC(=N)N)NC(=O)[C@H](Cc3ccc(O)cc3)NC1=O)C(=O)N[C@@H](Cc1ccc(O)cc1)C(=O)N[C@@H](CCCNC(=N)N)C(=O)N[C@@H](CCCNC(=N)N)C(=O)N[C@H](C(=O)N[C@@H](CCCNC(=N)N)C(N)=O)CSSC[C@H](NC(=O)[C@H](Cc1c[nH]c3ccccc13)NC(=O)[C@@H](N)CCCCN)C(=O)N[C@@H](Cc1ccccc1)C(=O)N[C@@H](CCCNC(=N)N)C(=O)N[C@@H](C(C)C)C(=O)N2 [Tachyplesin I, reference compound] (HELM PEPTIDE1{K.W.C.F.R.V.C.Y.R.G.I.C.Y.R.R.C.R.[am]}$PEPTIDE1,PEPTIDE1,3:R3-16:R3|PEPTIDE1,PEPTIDE1,7:R3-12:R3$$$V2.0; N-terminus and C-terminus assumed; bridges inferred)		49 (≈ 21.6 µM)		18.1 (≈ 8 µM)				
(1): polypeptide of the invention, SEQ ID NO: 2, shown only as drawing (WCYRKCYRGICYRKCR)						30	6.9	
